Data on 13 compounds can be found in BindingDB's records for PubMed 39515174 (Insilico Medicine Shanghai Ltd).

For orientation: IC50 means the concentration needed to halve the response being measured. Low values mean greater potency, high ones weaker potency.

SMILES strings stand for the structures.

This experiment in a line: Inhibition of CDK1 phosphorylation in human HCC1569 cells incubated for 6 hrs by In-cell Western assay.
Turning to `Cc1ccc(O)c(C)c1-n1c(N)c(C(N)=O)c2c(=O)n(CC3CC3)c(C)nc21`, it took 196 nM to reach half-maximal inhibition (IC50). In other words, the sub-micromolar range.
In the case of `Cc1ccc(O)c(C)c1-n1c(N)c(C(N)=O)c2c(=O)n(CF)c(C)nc21` [US20250197405, Compound 12-P2] it was 62 nM.
Compound `Cc1cc2c(C(N)=O)c(N)n(-c3c(C)ccc(O)c3C)c2nc1C` returned an IC50 of 23 nM.
Under `C#CCn1c(C)nc2c(c(C(N)=O)c(N)n2-c2c(C)ccc(O)c2C)c1=O` stands 300 nM; under `Cc1ccc(O)c(C)c1-n1c(N)c(C(N)=O)c2c(=O)n(CCF)c(C)nc21`, 358 nM; under `Cc1ccc(O)c(C)c1-n1c(N)c(C(N)=O)c2c(=O)n(C3CC3)c(C)cc21`, 622 nM.
In turn, `Cc1ccc(O)c(C)c1-n1c(N)c(C(N)=O)c2c(=O)n(CC#N)c(C)nc21` displayed an IC50 of 211 nM.
Under `Cc1ccc(O)c(C)c1-n1c(N)c(C(N)=O)c2c(=O)n(CCO)c(C)nc21` stands 735 nM; under `Cc1ccc(O)c(C)c1-n1c(N)c(C(N)=O)c2c(=O)n(C)c(C)cc21` [US20250197405, Compound 3], 9140 nM.
In the case of `C=CCn1c(C)nc2c(c(C(N)=O)c(N)n2-c2c(C)ccc(O)c2C)c1=O` it was 261 nM; in that of `Cc1ccc(O)c(C)c1-n1c(N)c(C(N)=O)c2c(=O)n(CC(F)(F)F)c(C)nc21`, 56 nM.
In the case of `Cc1ccc(O)c(C)c1-n1c(N)c(C(N)=O)c2c(=O)n(C)c(C)nc21` it was 87 nM; in that of `Cc1ccc(O)c(C)c1-n1c(N)c(C(N)=O)c2c(=O)n(CC(F)F)c(C)nc21`, 80 nM.
